Patent US7517517B2 (Janssen Pharmaceutica N.V., priority 2002, dated 2009)

Experiments:
[1] = target: T1, cloned rat mGlu1 receptor (Rattus norvegicus, UniProt P23385); assay: Signal transduction at the cloned rat mGlu1 receptor in CHO cells (glutamate-induced Ca2+ rise, FLIPR); format: cell-based
T1 construct: expressed in transfected cells; host or cells: CHO cells

[2] = inhibition of glutamate-induced intracellular Ca2+ rise, CHO cells expressing mGlu1 receptor, compounds with pIC50 between 7 and 8
[3] = 50% inhibition of the glutamate-induced intracellular Ca2+ rise, CHO cells, FLIPR

T1 sequence (P23385 19-1199): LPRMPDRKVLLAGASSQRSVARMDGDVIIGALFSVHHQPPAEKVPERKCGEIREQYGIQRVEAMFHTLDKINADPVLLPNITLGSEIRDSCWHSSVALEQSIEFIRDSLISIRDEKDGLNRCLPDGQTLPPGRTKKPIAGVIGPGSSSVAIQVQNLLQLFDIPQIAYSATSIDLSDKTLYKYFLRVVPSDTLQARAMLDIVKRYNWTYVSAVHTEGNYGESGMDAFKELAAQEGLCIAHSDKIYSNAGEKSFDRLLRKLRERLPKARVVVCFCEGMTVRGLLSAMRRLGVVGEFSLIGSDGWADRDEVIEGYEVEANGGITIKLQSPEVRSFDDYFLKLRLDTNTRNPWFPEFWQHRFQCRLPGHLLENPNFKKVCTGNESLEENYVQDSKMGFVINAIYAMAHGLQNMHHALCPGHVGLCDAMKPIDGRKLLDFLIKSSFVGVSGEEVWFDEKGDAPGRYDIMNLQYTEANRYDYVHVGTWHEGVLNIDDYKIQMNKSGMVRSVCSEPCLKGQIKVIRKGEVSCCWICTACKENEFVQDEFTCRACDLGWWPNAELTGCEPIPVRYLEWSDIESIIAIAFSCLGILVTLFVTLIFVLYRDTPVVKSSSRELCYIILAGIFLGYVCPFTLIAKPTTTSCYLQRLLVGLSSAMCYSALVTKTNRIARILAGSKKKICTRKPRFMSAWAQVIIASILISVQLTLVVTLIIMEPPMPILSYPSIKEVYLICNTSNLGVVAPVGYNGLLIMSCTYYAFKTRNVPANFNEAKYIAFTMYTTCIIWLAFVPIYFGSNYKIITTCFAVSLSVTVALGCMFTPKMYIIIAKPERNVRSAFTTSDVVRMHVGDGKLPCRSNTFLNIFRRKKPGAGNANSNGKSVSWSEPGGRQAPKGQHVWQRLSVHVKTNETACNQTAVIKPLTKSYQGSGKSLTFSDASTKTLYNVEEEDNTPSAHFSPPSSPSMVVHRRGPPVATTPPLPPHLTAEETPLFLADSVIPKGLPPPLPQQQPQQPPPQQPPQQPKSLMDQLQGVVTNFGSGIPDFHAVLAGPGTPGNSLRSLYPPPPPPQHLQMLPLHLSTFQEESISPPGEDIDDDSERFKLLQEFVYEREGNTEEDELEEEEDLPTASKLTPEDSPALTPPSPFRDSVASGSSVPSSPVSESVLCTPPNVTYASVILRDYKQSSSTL

Compound	IC50 [1, 2] [µM]	other results
COC1CCCC(C(=O)c2ccc3nc4c(cc3c2)CCCO4)C1 (centres unmarked) [Compound 437]	0.0166	
O=C(c1ccc2nc3c(cc2c1)CCCO3)C1COc2ccccc2O1 (centres unmarked) [Compound 438]	0.0646	
O=C(Cc1ccccc1)c1ccc2nc3c(cc2c1)CCCS3 [Compound 439]		IC50 [1, 3]: 0.00948 µM
COC1CCCC(C(=O)c2ccc3nc4c(cc3c2)CCCO4)C1 (centres unmarked) [Compound 440]	0.0117	
O=C(Cc1ccccc1)c1ccc2nc3c(cc2c1)CCS3 [Compound 441]	0.0112	
CN(C)CC(C(=O)c1ccc2nc3c(cc2c1)CCS3)c1ccccc1 (centres unmarked) [Compound 442]	0.0933	
O=C(c1ccc2nc3c(cc2c1)CCCS3)C1CC2CCC1C2 (centres unmarked) [Compound 445]	0.0234	
O=C(Cc1ccccc1)c1ccc2nc3c(cc2c1)CCC3 [Compound 446]	0.0275	
O=C(c1ccc2nc3c(cc2c1)CCS3)C1CC2CCC1C2 (centres unmarked) [Compound 447]	0.0191	
O=C(CCc1ccccc1)c1ccc2nc3c(cc2c1)CCS3 [Compound 448]	0.049	
O=C(c1ccc2nc3c(cc2c1)CCS3)C12CC3CC(CC(C3)C1)C2 [Compound 449]	0.017	
O=C(Cc1ccccc1)c1ccc2nc3c(cc2c1)CCCCC3 [Compound 454]	0.0355	
CC1Cc2cc3cc(C(=O)Cc4ccccc4)ccc3nc2O1 (centres unmarked) [Compound 455]		IC50 [1, 3]: 0.00881 µM
O=C(c1ccc2nc3c(cc2c1)CCCO3)C1CC2CCC1O2 (centres unmarked) [Compound 456]	0.0355	
O=C(c1ccc2nc3c(cc2c1)CCCO3)C1CC2CCC1O2 (centres unmarked) [Compound 457]	0.0724	
COC1CCC(C(=O)c2ccc3nc4c(cc3c2)CCCO4)=CO1 (centres unmarked) [Compound 460]	0.0457	
O=C(c1ccc2nc3c(cc2c1)CCCO3)C1CC2C=CC1C2 (centres unmarked) [Compound 461]	0.0224	
O=C(Cc1ccccc1)c1ccc2nc3sccc3cc2c1 [Compound 462]	0.0126	
O=C(Cc1ccccc1)c1ccc2nc3c(cc2c1)CCO3 [Compound 463]	0.0105	
O=C(Cc1ccsc1)c1ccc2nc3c(cc2c1)CCCO3 [Compound 465]		IC50 [1, 3]: 0.00716 µM
O=C(c1ccc2nc3c(cc2c1)CCS3)C1COc2ccccc2C1 (centres unmarked) [Compound 466]	0.0794	

Compound	IC50 [1, 2] [µM]	other results
CCc1cc2cc(/C=C/c3ccccc3)ccc2nc1C [Compound 471]		melting point: 140 °C
O=C(Cc1cccc(F)c1)c1ccc2nc3c(cc2c1)CCCO3 [Compound 473]	0.0479	
O=C(Cc1ccc(F)c(F)c1)c1ccc2nc3c(cc2c1)CCCO3 [Compound 474]	0.0741	
O=C(Cc1ccc(F)cc1)c1ccc2nc3c(cc2c1)CCCO3 [Compound 475]	0.0195	
O=C(Cc1ccccc1F)c1ccc2nc3c(cc2c1)CCCO3 [Compound 477]		IC50 [1, 3]: 0.00562 µM
O=C(CC1(F)CC2CCC1C2)c1ccc2nc3c(cc2c1)CCCO3 (centres unmarked) [Compound 482]	0.0457	
O=C(Cc1ccc(F)cc1)c1ccc2nc3c(cc2c1)CCCS3 [Compound 483]	0.0138	
O=C(Cc1cccc(F)c1)c1ccc2nc3c(cc2c1)CCCS3 [Compound 484]	0.0288	
COC1CCC(F)(C(=O)c2ccc3nc4c(cc3c2)CCCO4)CC1 (centres unmarked) [Compound 488]		IC50 [1, 3]: 0.00537 µM
CC1(C(=O)c2ccc3nc4c(cc3c2)CCCO4)CC2CCC1C2 (centres unmarked) [Compound 494]	0.0295	
O=C(c1ccc2nc3c(cc2c1)CCS3)C1(F)CC2CCC1C2 (centres unmarked) [Compound 496]	0.0661	
O=C(CC1CC2CCC1C2)c1ccc2nc3c(cc2c1)CCCO3 (centres unmarked) [Compound 497]		IC50 [1, 3]: 0.00944 µM
O=C(Cc1ccc(Br)cc1)c1ccc2nc3c(cc2c1)CCCO3 [Compound 498]	0.0166	
O=C(Cc1ccccc1F)c1ccc2nc3c(cc2c1)CCCS3 [Compound 499]		IC50 [1, 3]: 0.01 µM
Cc1cc2nc3c(cc2cc1C(=O)Cc1ccccc1)CCCO3 [Compound 504]		IC50 [1, 3]: 0.00537 µM
Cc1cc2cc3c(cc2cc1C(=O)Cc1ccccc1)CCCS3 [Compound 506]		IC50 [1, 3]: 0.00331 µM
O=C(c1ccc2nc3c(cc2c1)CCCS3)C1COc2ccccc2O1 (centres unmarked) [Compound 512]	0.0741	
c1ccc2c(-c3ccc4nc5c(cc4c3)CCS5)noc2c1 [Compound 514]		melting point: 185 °C
CCc1cc2cc(-c3cc4ccccc4o3)ccc2nc1C [Compound 515]		melting point: 134 °C
CCc1cc2cc(C(=O)Cc3ccccc3)ccc2nc1F [Compound 527]	0.0589	
